Reference: PubChem BioAssay (NCI)
Where “and” joins values, the source holds several entries; their conditions need not be identical. Equal entries are not always repeated.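 Five compound concentrations were applied to cells in 96-well plates for 48 hours; endpoints were derived by simple linear interpolation of the resulting dose-response curve. GI50 is the concentration that inhibits growth by half. TGI marks complete inhibition of growth.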

Legend:
Assay in all cases: NCI tumour cell line growth inhibition, 48 h
HOP-92 NSCLC = system: HOP-92 NSCLC
A549 NSCLC = system: A549 NSCLC
OVCAR-4 ovarian = system: OVCAR-4 ovarian
NCI-H522 lung = system: NCI-H522 lung
KM12 colon = system: KM12 colon
SNB-78 CNS = system: SNB-78 CNS
XF 498 CNS = system: XF 498 CNS
NCI/ADR-RES ovarian = system: NCI/ADR-RES ovarian
IGROV1 ovarian = system: IGROV1 ovarian
UACC-257 melanoma = system: UACC-257 melanoma
MCF7 breast = system: MCF7 breast
HCT-116 colon = system: HCT-116 colon
CCRF-CEM leukemia = system: CCRF-CEM leukemia
U251 CNS = system: U251 CNS
SNB-19 CNS = system: SNB-19 CNS
NCI-H460 lung = system: NCI-H460 lung
MDA-MB-231 breast = system: MDA-MB-231 breast
HCT-15 colon = system: HCT-15 colon
SN12K1 renal = system: SN12K1 renal
TK-10 renal = system: TK-10 renal
HT29 colon = system: HT29 colon
OVCAR-8 ovarian = system: OVCAR-8 ovarian
SR leukemia = system: SR leukemia
UACC-62 melanoma = system: UACC-62 melanoma
SF-268 CNS = system: SF-268 CNS
HOP-62 NSCLC = system: HOP-62 NSCLC
CAKI-1 renal = system: CAKI-1 renal
HL-60(TB) leukemia = system: HL-60(TB) leukemia
RPMI-8226 leukemia = system: RPMI-8226 leukemia
SK-OV-3 ovarian = system: SK-OV-3 ovarian
LXFL 529 NSCLC = system: LXFL 529 NSCLC
DMS 114 small cell lung = system: DMS 114 small cell lung
COLO 205 colon = system: COLO 205 colon
SK-MEL-5 melanoma = system: SK-MEL-5 melanoma
K-562 leukemia = system: K-562 leukemia
MALME-3M melanoma = system: MALME-3M melanoma
786-0 renal = system: 786-0 renal
M14 melanoma = system: M14 melanoma
P388 leukemia = system: P388 leukemia
SK-MEL-28 melanoma = system: SK-MEL-28 melanoma
SNB-75 CNS = system: SNB-75 CNS
SF-539 CNS = system: SF-539 CNS
M19-MEL melanoma = system: M19-MEL melanoma
UO-31 renal = system: UO-31 renal
MOLT-4 leukemia = system: MOLT-4 leukemia
HCC-2998 colon = system: HCC-2998 colon
RXF 393 renal = system: RXF 393 renal
DMS 273 small cell lung = system: DMS 273 small cell lung
NCI-H23 lung = system: NCI-H23 lung
SK-MEL-2 melanoma = system: SK-MEL-2 melanoma
EKVX NSCLC = system: EKVX NSCLC
SF-295 CNS = system: SF-295 CNS
OVCAR-5 ovarian = system: OVCAR-5 ovarian
LOX IMVI melanoma = system: LOX IMVI melanoma
SW-620 colon = system: SW-620 colon
A498 renal = system: A498 renal
OVCAR-3 ovarian = system: OVCAR-3 ovarian
SN12C renal = system: SN12C renal
KM20L2 colon = system: KM20L2 colon
DLD-1 colon = system: DLD-1 colon
ACHN renal = system: ACHN renal
T-47D breast = system: T-47D breast
BT-549 breast = system: BT-549 breast

CCOC(=O)Nc1ccc2c(c1)N(C(=O)CCN(CC)CC)c1ccccc1S2
GI50 (HOP-92 NSCLC): 14.2 µM | TGI (HOP-92 NSCLC): 67.8 µM and 73.5 µM | GI50 (A549 NSCLC): 58.3 µM | TGI (A549 NSCLC): 125 µM | GI50 (OVCAR-4 ovarian): 84 µM | TGI (OVCAR-4 ovarian): 234 µM | GI50 (NCI-H522 lung): 17 µM | TGI (NCI-H522 lung): 37.1 µM and 167 µM | GI50 (KM12 colon): 35.9 µM | TGI (KM12 colon): 24.6 µM and 110 µM | GI50 (SNB-78 CNS): 41 µM | GI50 (XF 498 CNS): 0.626 µM | TGI (XF 498 CNS): 33.4 µM and 10 µM | TGI (NCI/ADR-RES ovarian): 86.8 µM | GI50 (IGROV1 ovarian): 64 µM | TGI (IGROV1 ovarian): > 94.1 µM and 138 µM | GI50 (UACC-257 melanoma): 12.4 µM | TGI (UACC-257 melanoma): 32.3 µM and 35.4 µM | GI50 (MCF7 breast): 31.3 µM | TGI (MCF7 breast): > 94.3 µM | GI50 (HCT-116 colon): 12.5 µM | TGI (HCT-116 colon): > 31.6 µM and 39.9 µM | GI50 (CCRF-CEM leukemia): 17 µM | TGI (CCRF-CEM leukemia): > 91.2 µM and 66.9 µM | GI50 (U251 CNS): 39.8 µM | TGI (U251 CNS): > 72.1 µM and 108 µM | GI50 (SNB-19 CNS): 13.5 µM | TGI (SNB-19 CNS): 41.1 µM | TGI (NCI-H460 lung): 57.1 µM | TGI (MDA-MB-231 breast): 95.1 µM | GI50 (HCT-15 colon): 35.7 µM | TGI (HCT-15 colon): > 79.5 µM and 99.4 µM | TGI (SN12K1 renal): 95.3 µM | TGI (TK-10 renal): 76.6 µM | GI50 (HT29 colon): 29.6 µM | TGI (HT29 colon): 33.9 µM and 96.4 µM | GI50 (OVCAR-8 ovarian): 1.51 µM | TGI (OVCAR-8 ovarian): 2.5 µM | TGI (SR leukemia): 43.4 µM | GI50 (UACC-62 melanoma): 46.7 µM | TGI (UACC-62 melanoma): 52.8 µM and 112 µM | GI50 (SF-268 CNS): 55 µM | TGI (SF-268 CNS): > 74.6 µM and 128 µM | GI50 (HOP-62 NSCLC): 44.2 µM | TGI (HOP-62 NSCLC): 134 µM | GI50 (CAKI-1 renal): 11.4 µM | TGI (CAKI-1 renal): 30.6 µM | GI50 (HL-60(TB) leukemia): 16.1 µM | TGI (HL-60(TB) leukemia): 45.9 µM and 57.7 µM | GI50 (RPMI-8226 leukemia): 13 µM | TGI (RPMI-8226 leukemia): 51 µM and 47.5 µM | GI50 (SK-OV-3 ovarian): 106 µM | TGI (SK-OV-3 ovarian): 70.7 µM and 183 µM | TGI (LXFL 529 NSCLC): 42.5 µM | GI50 (DMS 114 small cell lung): 36.2 µM | TGI (DMS 114 small cell lung): 40.6 µM and 99.6 µM | GI50 (COLO 205 colon): 47 µM | TGI (COLO 205 colon): 47.7 µM and 120 µM | GI50 (SK-MEL-5 melanoma): 36.1 µM | TGI (SK-MEL-5 melanoma): 34.3 µM and 100 µM | GI50 (K-562 leukemia): 19.7 µM | TGI (K-562 leukemia): > 81.8 µM | GI50 (MALME-3M melanoma): 29.1 µM | TGI (MALME-3M melanoma): 34.4 µM and 70.3 µM | TGI (786-0 renal): 69.8 µM | TGI (M14 melanoma): 48.6 µM | TGI (P388 leukemia): 32.2 µM | GI50 (SK-MEL-28 melanoma): 60.3 µM | TGI (SK-MEL-28 melanoma): 57.1 µM and 126 µM | GI50 (SNB-75 CNS): 11.7 µM | TGI (SNB-75 CNS): 39.2 µM and 62.7 µM | GI50 (SF-539 CNS): 12.7 µM | TGI (SF-539 CNS): 48.5 µM and 43.5 µM | GI50 (M19-MEL melanoma): 56.2 µM | TGI (M19-MEL melanoma): > 71.1 µM and 124 µM | TGI (UO-31 renal): > 89.5 µM | GI50 (MOLT-4 leukemia): 13.7 µM | TGI (MOLT-4 leukemia): 71.1 µM and 44.3 µM | TGI (HCC-2998 colon): 32.8 µM and 75.7 µM | GI50 (RXF 393 renal): 15.4 µM | TGI (RXF 393 renal): 64.1 µM and 59.5 µM | TGI (DMS 273 small cell lung): > 68.8 µM and 77.9 µM | GI50 (NCI-H23 lung): 36.4 µM | TGI (NCI-H23 lung): > 90.5 µM and 114 µM | GI50 (SK-MEL-2 melanoma): 30.5 µM | TGI (SK-MEL-2 melanoma): 43.6 µM and 83.7 µM | GI50 (EKVX NSCLC): 74.2 µM | TGI (EKVX NSCLC): 141 µM | TGI (SF-295 CNS): 54.4 µM | GI50 (OVCAR-5 ovarian): 101 µM | TGI (OVCAR-5 ovarian): 99.9 µM and 178 µM | TGI (LOX IMVI melanoma): 37.6 µM and 67 µM | GI50 (SW-620 colon): 52.5 µM | TGI (SW-620 colon): 59.3 µM and 122 µM | GI50 (A498 renal): 33.3 µM | TGI (A498 renal): 58.9 µM and 99.7 µM | GI50 (OVCAR-3 ovarian): 42.3 µM | TGI (OVCAR-3 ovarian): > 78.9 µM and 107 µM | GI50 (SN12C renal): 24.3 µM | TGI (SN12C renal): > 76.8 µM and 85.3 µM | GI50 (KM20L2 colon): 13.9 µM | TGI (KM20L2 colon): 38.7 µM and 39.7 µM | GI50 (DLD-1 colon): 32.9 µM | TGI (DLD-1 colon): > 87.6 µM and 105 µM | TGI (ACHN renal): > 95.5 µM | TGI (T-47D breast): 87.9 µM | TGI (BT-549 breast): 97.2 µM
